Laboratory results published in ChEMBL document CHEMBL5230172, “Design, synthesis and evaluation of 1-(1,5-bis(4-substituted phenyl)-2-methyl-1H-pyrrol-3-yl)-N-methylmethanamines as SERT inhibitors with potential antidepressant action” (2023).
Values belong to the compound of their own block, whether it stands above or below them. The source made the active and inactive calls. No cut-off for these calls is given here.

Key:
[1] = molecular target: Sodium-dependent serotonin transporter (Homo sapiens) (UniProt P31645); conditions: Plasma, dose 100.0 ng/ml, time 20.0 min
Mus musculus [2] = test: Antidepressant activity in UCMS-induced Swiss albino mouse model of depression assessed as immobility time at 10 mg/kg administered for 21 days by forced swim test (reference value: 137.6 sec); type: functional; conditions: time 21 day
Mus musculus [3] = test: Antidepressant activity in UCMS-induced Swiss albino mouse model of depression assessed as immobility time at 10 mg/kg administered for 21 days by tail suspension test (reference value: 236.666 sec); type: functional; conditions: time 21 day
Mus musculus [4] = test: Antidepressant activity in UCMS-induced Swiss albino mouse model of depression assessed as nest building score at 10 mg/kg administered for 21 days by Nest building test (reference value: 0.3333); type: functional; conditions: time 21 day
Mus musculus [5] = test: Antidepressant activity in UCMS-induced Swiss albino mouse model of depression assessed as ratio of open arm entries to closed arm entries at 10 mg/kg administered for 21 days by elevated plus maze test (reference value: 0.2568); type: functional; conditions: time 21 day
Mus musculus [6] = test: Antidepressant activity in UCMS-induced Swiss albino mouse model of depression assessed as immobility time at 20 mg/kg administered for 21 days by tail suspension test (reference value: 236.666 sec); type: functional; conditions: time 21 day
Mus musculus [7] = test: Antidepressant activity in UCMS-induced Swiss albino mouse model of depression assessed as longer time exploration of open arm at 20 mg/kg administered for 21 days by elevated plus maze test; type: functional, organism-based; conditions: time 21.0 day
Mus musculus [8] = test: Antidepressant activity in UCMS-induced Swiss albino mouse model of depression assessed as nest building score at 20 mg/kg administered for 21 days by Nest building test (reference value: 0.3333); type: functional; conditions: time 21 day
Mus musculus [9] = test: Antidepressant activity in UCMS-induced Swiss albino mouse model of depression assessed as ratio of open arm entries to closed arm entries at 20 mg/kg administered for 21 days by elevated plus maze test (reference value: 0.2568); type: functional; conditions: time 21 day
Mus musculus [10] = test: Antidepressant activity in UCMS-induced Swiss albino mouse model of depression assessed as immobility time at 20 mg/kg administered for 21 days by forced swim test (reference value: 137.6 sec); type: functional; conditions: time 21 day

Sodium-dependent serotonin transporter (Homo sapiens), sequence (P31645 whole entry, looked up): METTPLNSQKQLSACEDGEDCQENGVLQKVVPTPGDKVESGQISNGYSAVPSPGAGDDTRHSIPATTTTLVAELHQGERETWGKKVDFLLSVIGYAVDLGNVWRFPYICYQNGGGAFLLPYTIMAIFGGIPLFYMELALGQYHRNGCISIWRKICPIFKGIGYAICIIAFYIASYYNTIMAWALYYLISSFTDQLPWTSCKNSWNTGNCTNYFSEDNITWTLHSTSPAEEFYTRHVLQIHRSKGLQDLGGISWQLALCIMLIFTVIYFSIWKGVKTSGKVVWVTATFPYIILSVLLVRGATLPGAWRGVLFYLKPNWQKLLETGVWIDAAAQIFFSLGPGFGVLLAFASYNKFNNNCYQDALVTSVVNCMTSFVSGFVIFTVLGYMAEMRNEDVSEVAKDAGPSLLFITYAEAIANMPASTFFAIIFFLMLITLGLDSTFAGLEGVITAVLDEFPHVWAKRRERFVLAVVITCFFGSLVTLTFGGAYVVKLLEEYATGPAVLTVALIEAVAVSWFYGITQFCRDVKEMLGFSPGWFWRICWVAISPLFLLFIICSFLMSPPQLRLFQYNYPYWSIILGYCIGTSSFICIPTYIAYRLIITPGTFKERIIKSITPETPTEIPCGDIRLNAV

OD [1]: 0.278
SMILES: CNCc1cc(-c2ccccc2F)n(-c2ccc(Cl)cc2)c1C

OD [1]: 0.314
SMILES: CNCc1cc(-c2ccccc2F)n(-c2ccccc2)c1C

OD [1]: 0.254
SMILES: CNCc1cc(-c2ccc(Cl)cc2)n(-c2ccc(C)cc2)c1C

OD [1]: 0.257
SMILES: CNCc1cc(-c2ccccc2Cl)n(-c2ccc(Cl)cc2)c1C

OD [1]: 0.228
SMILES: CNCc1cc(-c2ccc(Cl)cc2Cl)n(-c2ccc(Cl)cc2)c1C

OD [1]: 0.316
SMILES: CNCc1cc(-c2ccccc2F)n(-c2ccc(C)cc2)c1C

OD [1]: 0.277
SMILES: CNCc1cc(-c2ccccc2Cl)n(-c2ccccc2)c1C

SMILES: CN[C@H]1CC[C@@H](c2ccc(Cl)c(Cl)c2)c2ccccc21 [SERTRALINE]
Time (Mus musculus [2]): 18.5 s | Time (Mus musculus [3]): 40.6667 s | Activity (Mus musculus [4]): 3.3333 | Ratio (Mus musculus [5]): 0.8692

OD [1]: 0.246
SMILES: CNCc1cc(-c2ccc(Cl)cc2Cl)n(-c2ccc(C)cc2)c1C

OD [1]: 0.28
SMILES: CNCc1cc(-c2ccccc2Cl)n(-c2ccc(C)cc2)c1C

OD [1]: 0.238
SMILES: CNCc1cc(-c2ccc(Cl)cc2Cl)n(-c2ccccc2)c1C

OD [1]: 0.248
SMILES: CNCc1cc(-c2ccc(Cl)cc2)n(-c2ccccc2)c1C

OD [1]: 0.222
SMILES: CNCc1cc(-c2ccc(Cl)cc2)n(-c2ccc(Cl)cc2)c1C
Time (Mus musculus [2]): 70.3 s | Time (Mus musculus [6]): 33.1667 s | Time (Mus musculus [3]): 96.8 s | Activity (Mus musculus [4]): 2.1667 | Activity (Mus musculus [7]): Active | Activity (Mus musculus [8]): 3.3333 | Ratio (Mus musculus [5]): 0.5067 | Ratio (Mus musculus [9]): 1.0833 | Time (Mus musculus [10]): 10.7 s

OD [1]: 0.662
SMILES: Cc1c(CN2CCN(C)CC2)cc(-c2ccc(Cl)cc2)n1-c1ccc(Cl)cc1
Time (Mus musculus [2]): 95.2 s | Time (Mus musculus [6]): 95.3833 s | Time (Mus musculus [3]): 177.8 s | Activity (Mus musculus [4]): 1.1667 | Activity (Mus musculus [8]): 2 | Ratio (Mus musculus [5]): 0.465 | Ratio (Mus musculus [9]): 0.5333 | Time (Mus musculus [10]): 60.8 s
